Measurements reported in US10323007B1, “N2N N4-disubstituted quinazoline-2,4-diamines and uses thereof” (University of South Florida, priority 2016, dated 2019).
Converted amounts (≈) assume the structure as drawn. Where two headings read alike, the source gives them in different places.

How the values were obtained:
Format in all cases: cell-based, Acinetobacter baumannii
A. baumannii 1651 = assay: MIC assay, strain 1651
Procedure: (§1) MIC and MBC assays were performed in this study as documented by us previously.^17,23,24,25 The A. baumannii strains used are detailed in Table 7.

A. baumannii 1649 = assay: MIC assay, strain 1649
Procedure: as §1

A. baumannii 1403 = assay: MIC assay, strain 1403
Procedure: as §1

A. baumannii 1646 [1] = assay: MIC assay, strain 1646
Procedure: as §1

A. baumannii 1652 = assay: MIC assay, strain 1652
Procedure: as §1

A. baumannii 1650 = assay: MIC assay, strain 1650
Procedure: as §1

A. baumannii = assay: MIC assay, A. baumannii isolates (strain not given); settings: for MIC: Acinetobacter baumannii, strain not given, read-out: MIC
Procedure: as §1

A. baumannii 1646 [2] = assay: minimal bactericidal concentration (MBC) assay, strain 1646; settings: isolate 1646
Excerpt: Lead quinazolines 4, 5, 26, 29, 27, and 30 were selected to be further evaluated for antimicrobial effects. The first assay utilized was a minimal bactericidal concentration (MBC) assay, to assess whether leads compounds were bacteriostatic or bactericidal. The six lead agents were screened to identify their MBC90 towards each of the six A. baumannii isolates used in the SAR studies (Table 8), however for simplicity only the representative data for isolate 1646 is detailed below (Table 6). […] Further to this, we were able to obtain complete eradication of bacterial growth for these two compounds at 1 μM for 24 and 5 μM for 25.
as §1

[3] = Acinetobacter baumannii, strain 1651, Tables 1, 3, 4, 5 and footnotes, read-out: 1651 MIC
[4] = Acinetobacter baumannii, strain 1649, Tables 1, 3, 4, 5 and footnotes, read-out: 1649 MIC
[5] = Acinetobacter baumannii, strain 1403, Tables 1, 3, 4, 5 and footnotes, read-out: 1403 MIC
[6] = Acinetobacter baumannii, strain 1646, Tables 1, 3, 4, 5 and footnotes, read-out: 1646 MIC
[7] = Acinetobacter baumannii, strain 1652, Tables 1, 3, 4, 5 and footnotes, read-out: 1652 MIC
[8] = Acinetobacter baumannii, strain 1650, Tables 1, 3, 4, 5 and footnotes, read-out: 1650 MIC
[9] = Acinetobacter baumannii, strain 1651, Table 2, read-out: 1651 MIC
[10] = Acinetobacter baumannii, strain 1649, Table 2, read-out: 1649 MIC
[11] = Acinetobacter baumannii, strain 1403, Table 2, read-out: 1403 MIC
[12] = Acinetobacter baumannii, strain 1646, Table 2, read-out: 1646 MIC
[13] = Acinetobacter baumannii, strain 1652, Table 2, read-out: 1652 MIC
[14] = Acinetobacter baumannii, strain 1650, Table 2, read-out: 1650 MIC
[15] = Acinetobacter baumannii, 1651, read-out: 1651 MIC
[16] = Acinetobacter baumannii, 1649, read-out: 1649 MIC
[17] = Acinetobacter baumannii, 1403, read-out: 1403 MIC
[18] = Acinetobacter baumannii, 1646, read-out: 1646 MIC
[19] = Acinetobacter baumannii, 1652, read-out: 1652 MIC
[20] = Acinetobacter baumannii, 1650, read-out: 1650 MIC

Compound	MIC (A. baumannii 1651; [3]) [µM]	MIC (A. baumannii 1649; [4]) [µM]	MIC (A. baumannii 1403; [5]) [µM]	MIC (A. baumannii 1646 [1]; [6]) [µM]	MIC (A. baumannii 1652; [7]) [µM]	MIC (A. baumannii 1650; [8]) [µM]	also measured
CNc1nc(NCc2ccccc2)nc2ccc(Cl)cc12 [Compound 1, N^2-Benzyl-6-chloro-N^4-methylquinazoline-2,4-diamine]	6 (≈ 1.79 µg/mL)	25 (≈ 7.47 µg/mL)	50 (≈ 14.9 µg/mL)	2 (≈ 0.598 µg/mL)	20 (≈ 5.98 µg/mL)	15 (≈ 4.48 µg/mL)	–
CNc1nc(NCc2ccccc2)nc2cc(Cl)ccc12 [Compound 2, N^2-Benzyl-7-chloro-N^4-methylquinazoline-2,4-diamine]	10 (≈ 2.99 µg/mL)	30 (≈ 8.96 µg/mL)	> 50	6 (≈ 1.79 µg/mL)	50 (≈ 14.9 µg/mL)	> 50	–
CNc1nc(NCc2ccccc2)nc2ccc(OC)cc12 [Compound 3, N^2-Benzyl-6-methoxy-N^4-methylquinazoline-2,4-diamine]	10 (≈ 2.94 µg/mL)	25 (≈ 7.36 µg/mL)	> 50	2 (≈ 0.589 µg/mL)	30 (≈ 8.83 µg/mL)	50 (≈ 14.7 µg/mL)	–
CNc1nc(NCc2ccccc2)nc2cc(Br)ccc12 [Compound 6, N^2-Benzyl-7-bromo-N^4-methylquinazoline-2,4-diamine]	–	–	–	–	–	–	MIC (A. baumannii 1651; [9]): 10 µM (≈ 3.43 µg/mL); MIC (A. baumannii 1649; [10]): 25 µM (≈ 8.58 µg/mL); MIC (A. baumannii 1403; [11]): > 50 µM; MIC (A. baumannii 1646 [1]; [12]): 6 µM (≈ 2.06 µg/mL); MIC (A. baumannii 1652; [13]): > 50 µM; MIC (A. baumannii 1650; [14]): > 50 µM
CNc1nc(NCc2ccccc2)nc2cc(C)ccc12 [Compound 7, N^2-Benzyl-N^4,7-dimethylquinazoline-2,4-diamine]	–	–	–	–	–	–	MIC (A. baumannii 1651; [9]): 12 µM (≈ 3.34 µg/mL); MIC (A. baumannii 1649; [10]): 25 µM (≈ 6.96 µg/mL); MIC (A. baumannii 1403; [11]): 50 µM (≈ 13.9 µg/mL); MIC (A. baumannii 1646 [1]; [12]): 12 µM (≈ 3.34 µg/mL); MIC (A. baumannii 1652; [13]): 35 µM (≈ 9.74 µg/mL); MIC (A. baumannii 1650; [14]): 50 µM (≈ 13.9 µg/mL)
CNc1nc(NCc2ccccc2)nc2ccccc12 [Compound 8, N^2-benzyl-N^4-methylquinazolin-2,4-diamine]	–	–	–	–	–	–	MIC (A. baumannii 1651; [9]): > 50 µM; MIC (A. baumannii 1649; [10]): > 50 µM; MIC (A. baumannii 1403; [11]): > 50 µM; MIC (A. baumannii 1646 [1]; [12]): 50 µM (≈ 13.2 µg/mL); MIC (A. baumannii 1652; [13]): > 50 µM; MIC (A. baumannii): ≥ 50 µM; MIC (A. baumannii 1650; [14]): > 50 µM
CNc1nc(NCc2ccccc2)c2cc(Cl)ccc2n1 [Compound 9, N^4-Benzyl-6-chloro-N^2-methylquinazoline-2,4-diamine]	6 (≈ 1.79 µg/mL)	50 (≈ 14.9 µg/mL)	> 50	4 (≈ 1.2 µg/mL)	> 50	50 (≈ 14.9 µg/mL)	–
CNc1nc(NCc2ccccc2)c2cc(Br)ccc2n1 [Compound 10, N^4-Benzyl-6-bromo-N^2-methylquinazoline-2,4-diamine]	> 50	50 (≈ 17.2 µg/mL)	> 50	2 (≈ 0.686 µg/mL)	> 50	> 50	–
CNc1nc(NCc2ccccc2)c2cc(C)ccc2n1 [Compound 11, N^4-Benzyl-N^2,6-dimethylquinazoline-2,4-diamine]	12 (≈ 3.34 µg/mL)	> 50	> 50	6 (≈ 1.67 µg/mL)	> 50	> 50	–
CNc1nc(NCc2ccccc2)c2cc(OC)ccc2n1 [Compound 12, N^4-Benzyl-6-methoxy-N^2-methylquinazoline-2,4-diamine]	8 (≈ 2.35 µg/mL)	> 50	> 50	6 (≈ 1.77 µg/mL)	> 50	> 50	–
CNc1nc(NCc2ccccc2)c2ccc(Cl)cc2n1 [Compound 13, N^4-Benzyl-7-chloro-N^2-methylquinazoline-2,4-diamine]	> 50	> 50	> 50	4 (≈ 1.2 µg/mL)	> 50	> 50	–
CNc1nc(NCc2ccccc2)c2ccc(Br)cc2n1 [Compound 14, N^4-Benzyl-7-bromo-N^2-methylquinazoline-2,4-diamine]	> 50	> 50	> 50	4 (≈ 1.37 µg/mL)	> 50	> 50	–
CNc1nc(NCc2ccccc2)c2ccc(C)cc2n1 [Compound 15, N^4-Benzyl-N^2,7-dimethylquinazoline-2,4-diamine]	> 50	> 50	> 50	12 (≈ 3.34 µg/mL)	> 50	> 50	–
CNc1nc(NCCc2ccccc2)nc2ccccc12 [Compound 16, N^4-Methyl-N^2-phenethylquinazoline-2,4-diamine]	> 50	> 50	> 50	12 (≈ 3.34 µg/mL)	> 50	> 50	fold more active than the benzyl analogue 8 (A. baumannii; MIC comparison): 4 fold
CNc1nc(NCCc2ccccc2)nc2ccc(Cl)cc12 [Compound 17, 6-Chloro-N^4-methyl-N^2-phenethylquinazoline-2,4-diamine]	> 50	> 50	> 50	2 (≈ 0.626 µg/mL)	> 50	> 50	MIC (A. baumannii): 2 to 4 µM (≈ 0.626 to 1.25 µg/mL)
C=Cc1ccc2nc(NCc3ccccc3)nc(NC)c2c1 [Compound 22, N^2-Benzyl-N^4-methyl-6-vinylquinazoline-2,4-diamine]	25 (≈ 7.26 µg/mL)	10 (≈ 2.9 µg/mL)	25 (≈ 7.26 µg/mL)	2 (≈ 0.581 µg/mL)	25 (≈ 7.26 µg/mL)	20 (≈ 5.81 µg/mL)	–
CCc1ccc2nc(NCc3ccccc3)nc(NC)c2c1 [Compound 23, N^2-Benzyl-6-ethyl-N^4-methylquinazoline-2,4-diamine]	2 (≈ 0.585 µg/mL)	10 (≈ 2.92 µg/mL)	30 (≈ 8.77 µg/mL)	2 (≈ 0.585 µg/mL)	30 (≈ 8.77 µg/mL)	30 (≈ 8.77 µg/mL)	–
C=C(C)c1ccc2nc(NCc3ccccc3)nc(NC)c2c1 [Compound 24, N^2-Benzyl-N^4-methyl-6-(prop-1-en-2-yl)quinazoline-2,4-diamine]	10 (≈ 3.04 µg/mL)	25 (≈ 7.61 µg/mL)	> 50	2 (≈ 0.609 µg/mL)	> 50	> 50	concentration giving complete eradication of bacterial growth (A. baumannii 1646 [2]): 1 µM
CNc1nc(NCc2ccccc2)nc2ccc(C3=CCCC3)cc12 [Compound 28, N^2-Benzyl-6-(cyclopent-1-en-1-yl)-N^4-methylquinazoline-2,4-diamine]	30 (≈ 9.91 µg/mL)	50 (≈ 16.5 µg/mL)	> 50	2 (≈ 0.661 µg/mL)	> 50	> 50	–
CNc1nc(NCc2ccccc2)nc2ccc(-c3ccccc3)cc12 [Compound 31, N^2-Benzyl-N^4-methyl-6-phenylquinazoline-2,4-diamine]	–	–	–	–	–	–	MIC (A. baumannii 1651; [15]): 2 µM (≈ 0.681 µg/mL); MIC (A. baumannii 1649; [16]): 20 µM (≈ 6.81 µg/mL); MIC (A. baumannii 1403; [17]): 30 µM (≈ 10.2 µg/mL); MIC (A. baumannii 1646 [1]; [18]): 10 µM (≈ 3.4 µg/mL); MIC (A. baumannii 1652; [19]): 50 µM (≈ 17 µg/mL); MIC (A. baumannii 1650; [20]): 20 µM (≈ 6.81 µg/mL)
CNc1nc(NCc2ccccc2)nc2ccc(-c3ccco3)cc12 [Compound 32, N^2-Benzyl-6-(furan-2-yl)-N^4-methylquinazoline-2,4-diamine]	–	–	–	–	–	–	MIC (A. baumannii 1651; [15]): 15 µM (≈ 4.96 µg/mL); MIC (A. baumannii 1649; [16]): > 50 µM; MIC (A. baumannii 1403; [17]): 40 µM (≈ 13.2 µg/mL); MIC (A. baumannii 1646 [1]; [18]): 25 µM (≈ 8.26 µg/mL); MIC (A. baumannii 1652; [19]): > 50 µM; MIC (A. baumannii 1650; [20]): > 50 µM
